From patent US20230122911A1, “FORMULATIONS OF ENZALUTAMIDE” (Astellas Pharma Inc., priority 2012, published 2023) come the findings set out here.

This data set can be described thus: Glass transition temperature (Tg) by modulated DSC. The data set is classed as physicochemical. How it is done:
Below Tg, an amorphous material is said to be in a “glassy” state in which molecular mobility is severely restricted. […] Glass transition temperatures Tg were determined for amorphous enzalutamide, and for spray-dried dispersions (SDDs) of enzalutamide with HPMCAS-M or PVP-VA64, at <5% and 75% relative humidity (RH) Tgs were determined by modulated differential scanning calorimetry (mDSC), utilizing the following protocol. Samples (about 5 mg) were equilibrated at the desired RH overnight in an environmental chamber at ambient temperature. The samples were then loaded into pans and sealed inside the environmental chamber. The samples were analyzed on a Q1000 mDSC (TA Instruments, New Castle, Delaware). Samples were typically scanned over the temperature range of -40° C. to 180° C., at a scan rate of 2.5° C./min, and a modulation rate of ±1.5° C./min. […] The Tg was calculated based on half height.
HME dispersions were produced using dry-powder blends of enzalutamide and HPMCAS-M or PVP VA at three different drug loadings: 25%A, 40%A, and 60%A. Using a volumetric powder feeder, the blends were fed at a controlled rate to a 7.5 \-mm MP&R™ Model ME7.5 Twin-Screw Extruder (MP&R, Hackensack, NJ). […] Table 11.1 presents the extrusion temperature, the crystallinity of the dispersion (amorphous is desired), and the glass transition temperature (Tg) measured by DSC.

For the molecule `CNC(=O)c1ccc(N2C(=S)N(c3ccc(C#N)c(C(F)(F)F)c3)C(=O)C2(C)C)cc1F` [Amorphous enzalutamide, 4-{3-[4-cyano-3-(trifluoromethyl)phenyl]-5,5-dimethyl-4-oxo-2-sulfanylideneimidazolidin-1-yl}-2-fluoro-N-methylbenzamide], the Tg is, setting by setting: (75% RH) 64.0 °C; (<5% RH) 88.5 °C.
